Source: the supplement of paper PMC10307832

Assays:
Experiment in all cases: relative viability (nuclei count vs DMSO), 5 days (fraction); higher = more cells survive
[1] = compound: CN(c1ncccc1CNc1nc(Nc2ccc3c(c2)CC(=O)N3)ncc1C(F)(F)F)S(C)(=O)=O + CS(=O)(=O)N1CCN(Cc2cc3nc(-c4cccc5[nH]ncc45)nc(N4CCOCC4)c3s2)CC1 [Pictilisib] (partner 1 µM)
How it was run: (§1)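 Nuclei were stained with Hoechst during a one-step fixation (final 0.05% Triton X-100, 1% formaldehyde, 1 ug/ml Hoechst) carried out 5 days after dosing, then counted on 4× images. The cells, lung cancer lines in 1536-well plates, had been dosed by pin tool the day after seeding with one drug alone or a fixed anchor-drug dose plus five library-drug doses (not always all listed) in √10 steps. Relative viability is the nuclei count in treated wells divided by that in vehicle wells, and each value is the median of duplicate plates.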

[2] = compound: CN(c1ncccc1CNc1nc(Nc2ccc3c(c2)CC(=O)N3)ncc1C(F)(F)F)S(C)(=O)=O + Cc1nc(NC(=O)N2CCC[C@H]2C(N)=O)sc1-c1ccnc(C(C)(C)C(F)(F)F)c1 [Alpelisib] (partner 2 µM)
How it was run: as §1

[3] = compound: CN(c1ncccc1CNc1nc(Nc2ccc3c(c2)CC(=O)N3)ncc1C(F)(F)F)S(C)(=O)=O + N=C(N)NC(=N)NCCc1ccccc1 [Phenformin] (partner 250 µM)
How it was run: as §1

[4] = compound: CN(c1ncccc1CNc1nc(Nc2ccc3c(c2)CC(=O)N3)ncc1C(F)(F)F)S(C)(=O)=O + NC(=O)Nc1cc(-c2cccc(F)c2)sc1C(=O)N[C@H]1CCCNC1 [AZD7762] (partner 0.2 µM)
How it was run: as §1

NCI-H1437 was tested, and the relative viability ([1]; first compound 0.01 µM) was 0.424, the relative viability ([1]; first compound 0.03162 µM) was 0.468 and the relative viability ([1]; first compound 0.1 µM) was 0.557. The relative viability ([1]; first compound 0.3162 µM) was 0.41, the relative viability ([1]; first compound 1 µM) was 0.546 and the relative viability ([2]; first compound 0.01 µM) was 0.973. The relative viability ([2]; first compound 0.03162 µM) was 1.13, the relative viability ([2]; first compound 0.1 µM) was 1.05 and the relative viability ([2]; first compound 0.3162 µM) was 0.941. It also gave a relative viability ([2]; first compound 1 µM) of 0.788, a relative viability ([3]; first compound 0.01 µM) of 0.384 and a relative viability ([3]; first compound 0.03162 µM) of 0.333. The relative viability ([3]; first compound 0.1 µM) was 0.284, the relative viability ([3]; first compound 0.3162 µM) was 0.298 and the relative viability ([3]; first compound 1 µM) was 0.266. It also gave a relative viability ([4]; first compound 0.01 µM) of 1.12, a relative viability ([4]; first compound 0.03162 µM) of 1.17 and a relative viability ([4]; first compound 0.1 µM) of 1.15. It also gave a relative viability ([4]; first compound 0.3162 µM) of 1.08 and a relative viability ([4]; first compound 1 µM) of 1.07.

NCI-H1651 showed a relative viability ([1]; first compound 0.01 µM) of 0.523, a relative viability ([1]; first compound 0.03162 µM) of 0.617 and a relative viability ([1]; first compound 0.1 µM) of 0.601. It also gave a relative viability ([1]; first compound 0.3162 µM) of 0.596, a relative viability ([1]; first compound 1 µM) of 0.546 and a relative viability ([2]; first compound 0.01 µM) of 0.992. The relative viability ([2]; first compound 0.03162 µM) was 1, the relative viability ([2]; first compound 0.1 µM) was 0.873 and the relative viability ([2]; first compound 0.3162 µM) was 0.899. The relative viability ([2]; first compound 1 µM) was 0.916, the relative viability ([3]; first compound 0.01 µM) was 0.348 and the relative viability ([3]; first compound 0.03162 µM) was 0.365. It also gave a relative viability ([3]; first compound 0.1 µM) of 0.359, a relative viability ([3]; first compound 0.3162 µM) of 0.365 and a relative viability ([3]; first compound 1 µM) of 0.358. The relative viability ([4]; first compound 0.01 µM) was 0.507, the relative viability ([4]; first compound 0.03162 µM) was 0.469 and the relative viability ([4]; first compound 0.1 µM) was 0.488. For the same cell line, the relative viability ([4]; first compound 0.3162 µM) was 0.534 and the relative viability ([4]; first compound 1 µM) was 0.484.

For NCI-H1666, the relative viability ([1]; first compound 0.01 µM) was 0.549, the relative viability ([1]; first compound 0.03162 µM) was 0.373 and the relative viability ([1]; first compound 0.1 µM) was 0.404. For the same cell line, the relative viability ([1]; first compound 0.3162 µM) was 0.532, the relative viability ([1]; first compound 1 µM) was 0.404 and the relative viability ([2]; first compound 0.01 µM) was 1.11. It also gave a relative viability ([2]; first compound 0.03162 µM) of 0.72, a relative viability ([2]; first compound 0.1 µM) of 0.877 and a relative viability ([2]; first compound 0.3162 µM) of 0.79. It also gave a relative viability ([2]; first compound 1 µM) of 0.686, a relative viability ([3]; first compound 0.01 µM) of 0.524 and a relative viability ([3]; first compound 0.03162 µM) of 0.621. For the same cell line, the relative viability ([3]; first compound 0.1 µM) was 0.514, the relative viability ([3]; first compound 0.3162 µM) was 0.508 and the relative viability ([3]; first compound 1 µM) was 0.384. For the same cell line, the relative viability ([4]; first compound 0.01 µM) was 0.978, the relative viability ([4]; first compound 0.03162 µM) was 0.834 and the relative viability ([4]; first compound 0.1 µM) was 0.838. It also gave a relative viability ([4]; first compound 0.3162 µM) of 0.932 and a relative viability ([4]; first compound 1 µM) of 0.847.

NCI-H1734 was tested, and the relative viability ([1]; first compound 0.01 µM) was 0.418, the relative viability ([1]; first compound 0.03162 µM) was 0.555 and the relative viability ([1]; first compound 0.1 µM) was 0.454. For the same cell line, the relative viability ([1]; first compound 0.3162 µM) was 0.468, the relative viability ([1]; first compound 1 µM) was 0.475 and the relative viability ([2]; first compound 0.01 µM) was 0.665. The relative viability ([2]; first compound 0.03162 µM) was 0.778, the relative viability ([2]; first compound 0.1 µM) was 0.666 and the relative viability ([2]; first compound 0.3162 µM) was 0.631. For the same cell line, the relative viability ([2]; first compound 1 µM) was 0.641, the relative viability ([3]; first compound 0.01 µM) was 0.395 and the relative viability ([3]; first compound 0.03162 µM) was 0.395. It also gave a relative viability ([3]; first compound 0.1 µM) of 0.375, a relative viability ([3]; first compound 0.3162 µM) of 0.4 and a relative viability ([3]; first compound 1 µM) of 0.415. For the same cell line, the relative viability ([4]; first compound 0.01 µM) was 0.55, the relative viability ([4]; first compound 0.03162 µM) was 0.659 and the relative viability ([4]; first compound 0.1 µM) was 0.667. For the same cell line, the relative viability ([4]; first compound 0.3162 µM) was 0.782 and the relative viability ([4]; first compound 1 µM) was 0.742.

NCI-H1755 gave a relative viability ([1]; first compound 0.01 µM) of 0.436, a relative viability ([1]; first compound 0.03162 µM) of 0.417 and a relative viability ([1]; first compound 0.1 µM) of 0.426. The relative viability ([1]; first compound 0.3162 µM) was 0.477, the relative viability ([1]; first compound 1 µM) was 0.451 and the relative viability ([2]; first compound 0.01 µM) was 0.904. For the same cell line, the relative viability ([2]; first compound 0.03162 µM) was 0.946, the relative viability ([2]; first compound 0.1 µM) was 0.94 and the relative viability ([2]; first compound 0.3162 µM) was 0.82. For the same cell line, the relative viability ([2]; first compound 1 µM) was 0.848, the relative viability ([3]; first compound 0.01 µM) was 0.666 and the relative viability ([3]; first compound 0.03162 µM) was 0.615. It also gave a relative viability ([3]; first compound 0.1 µM) of 0.589, a relative viability ([3]; first compound 0.3162 µM) of 0.585 and a relative viability ([3]; first compound 1 µM) of 0.574. For the same cell line, the relative viability ([4]; first compound 0.01 µM) was 0.585, the relative viability ([4]; first compound 0.03162 µM) was 0.398 and the relative viability ([4]; first compound 0.1 µM) was 0.488. It also gave a relative viability ([4]; first compound 0.3162 µM) of 0.502 and a relative viability ([4]; first compound 1 µM) of 0.437.

NCI-H1792 gave a relative viability ([1]; first compound 0.01 µM) of 0.263, a relative viability ([1]; first compound 0.03162 µM) of 0.281 and a relative viability ([1]; first compound 0.1 µM) of 0.323. It also gave a relative viability ([1]; first compound 0.3162 µM) of 0.306, a relative viability ([1]; first compound 1 µM) of 0.332 and a relative viability ([2]; first compound 0.01 µM) of 0.661. For the same cell line, the relative viability ([2]; first compound 0.03162 µM) was 0.68, the relative viability ([2]; first compound 0.1 µM) was 0.654 and the relative viability ([2]; first compound 0.3162 µM) was 0.695. It also gave a relative viability ([2]; first compound 1 µM) of 0.728, a relative viability ([3]; first compound 0.01 µM) of 0.258 and a relative viability ([3]; first compound 0.03162 µM) of 0.297. It also gave a relative viability ([3]; first compound 0.3162 µM) of 0.281, a relative viability ([3]; first compound 1 µM) of 0.489 and a relative viability ([4]; first compound 0.01 µM) of 0.721. The relative viability ([4]; first compound 0.03162 µM) was 0.822, the relative viability ([4]; first compound 0.1 µM) was 0.674 and the relative viability ([4]; first compound 0.3162 µM) was 0.722. For the same cell line, the relative viability ([4]; first compound 1 µM) was 0.755.

With NCI-H1793 the relative viability ([1]; first compound 0.01 µM) was 0.285, the relative viability ([1]; first compound 0.03162 µM) was 0.393 and the relative viability ([1]; first compound 0.1 µM) was 0.208. The relative viability ([1]; first compound 0.3162 µM) was 0.319, the relative viability ([1]; first compound 1 µM) was 0.265 and the relative viability ([2]; first compound 0.01 µM) was 0.77. For the same cell line, the relative viability ([2]; first compound 0.03162 µM) was 0.765, the relative viability ([2]; first compound 0.1 µM) was 0.611 and the relative viability ([2]; first compound 0.3162 µM) was 0.674. The relative viability ([2]; first compound 1 µM) was 0.659, the relative viability ([3]; first compound 0.01 µM) was 0.398 and the relative viability ([3]; first compound 0.03162 µM) was 0.384. It also gave a relative viability ([3]; first compound 0.1 µM) of 0.403, a relative viability ([3]; first compound 0.3162 µM) of 0.247 and a relative viability ([3]; first compound 1 µM) of 0.197. The relative viability ([4]; first compound 0.01 µM) was 0.407, the relative viability ([4]; first compound 0.03162 µM) was 0.541 and the relative viability ([4]; first compound 0.1 µM) was 0.543. For the same cell line, the relative viability ([4]; first compound 0.3162 µM) was 0.53 and the relative viability ([4]; first compound 1 µM) was 0.452.

NCI-H1915 was tested, and the relative viability ([1]; first compound 0.01 µM) was 1.01, the relative viability ([1]; first compound 0.03162 µM) was 0.826 and the relative viability ([1]; first compound 0.1 µM) was 0.905. It also gave a relative viability ([1]; first compound 0.3162 µM) of 1.01, a relative viability ([1]; first compound 1 µM) of 0.939 and a relative viability ([2]; first compound 0.01 µM) of 1.07. It also gave a relative viability ([2]; first compound 0.03162 µM) of 1.1, a relative viability ([2]; first compound 0.1 µM) of 1.03 and a relative viability ([2]; first compound 0.3162 µM) of 1.05. It also gave a relative viability ([2]; first compound 1 µM) of 1.02, a relative viability ([3]; first compound 0.01 µM) of 0.386 and a relative viability ([3]; first compound 0.03162 µM) of 0.379. It also gave a relative viability ([3]; first compound 0.1 µM) of 0.365, a relative viability ([3]; first compound 0.3162 µM) of 0.368 and a relative viability ([3]; first compound 1 µM) of 0.36. The relative viability ([4]; first compound 0.01 µM) was 0.762, the relative viability ([4]; first compound 0.03162 µM) was 0.654 and the relative viability ([4]; first compound 0.1 µM) was 0.696. The relative viability ([4]; first compound 0.3162 µM) was 0.703 and the relative viability ([4]; first compound 1 µM) was 0.76.
